{"source": "paper PMC8330742", "about": "“New benzothieno[2,3-c]pyridines as non-steroidal CYP17 inhibitors: design, synthesis, anticancer screening, apoptosis induction, and in silico ADME profile studies” (Journal of Enzyme Inhibition and Medicinal Chemistry, 2021)", "key": {"HS 578 T": {"system": "HS 578 T", "assay": "NCI-60 SRB screen;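 on pIC50: half-maximal inhibitory concentration read as cell viability unlike GI50 net growth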", "assay_type": "cell-based, human", "conditions": "five dose"}, "WI-38 human cell line": {"system": "WI-38 human cell line", "assay": "In vitro cytotoxicity on WI-38 human cell line (MTT)", "assay_type": "cell-based", "conditions": "WI-38 normal human cell line", "experimental": "Cell Line cells were obtained from American Type Culture Collection and were cultured using DMEM (Invitrogen/Life Technologies) supplemented with 10% FBS (Hyclone), 10 µg/ml of insulin (Sigma), and 1% penicillin-streptomycin. All of the other chemicals and reagents were obtained from Sigma or Invitrogen. Plate cells were incubated (cells density 1.2–1.8 × 10,000 cells/well) in a volume of 100 µL complete growth medium and 100 ul of the tested compound per well in a 96-well plate for 24 h before the MTT assay. The cultures were removed from the incubator into a laminar flow hood or other sterile work area followed by the addition of reconstituted MTT in an amount equal to 10% of the culture medium volume, then incubated for an additional 2 h. After the incubation period, cultures were removed from the incubator, and the resulted formazan crystals were dissolved by adding an amount of MTT solubilisation solution [M-8910] equal to the original culture medium volume, then the absorbance at a wavelength of 570 nm was measured. Finally, the IC50 of the tested compound compared to the reference was calculated using GraphPad Prism software."}, "CYP17 enzyme": {"system": "CYP17 enzyme", "assay": "CYP17 enzyme ELISA in mice prostate cancer model", "assay_type": "in vivo", "conditions": "5 mg/kg i.p., 5 days a week, ELISA of tissue (Mice testis)", "experimental": "A total of 16 mice from the TRAMP/FVB background ([…], male, average 45 days, average weight […], mice with prostate cancer) were taken and divided into 2 groups with 8 animals in each group. One group of mice was given a drug in 0.2 ml of DMSO and phosphate-buffered saline (1:10) ratio (5 mg/kg body weight, i.p., 5 days a week). The control group animals were treated with 0.2 ml of DMSO and phosphate-buffered saline (1:10) ratio. A total of eight mice, four animals from each group, were examined at 13 weeks of age, and the remaining animals from each group were examined at 20 weeks for prostate tumour development. Treatment was stopped 24 h before killing the animals.\nBioSource 2704060 96 assay kit is a sandwich enzyme immunoassay for in vitro quantitative measurement of CYP17 enzyme activity in mouse tissue homogenates, cell lysates, cell culture supernatant, and other biological fluids. Tested tissues were rinsed in ice-cold PBS to remove excess blood and weighed before homogenisation. The tissues were minced and homogenised in fresh lysis buffer with a glass homogeniser. (catalog: IS007, different lysis buffer needs to be chosen based on subcellular location of the target protein) (w:v = 1:20–1:50, e.g. 1 ml lysis buffer is added in 20–50 mg tissue sample) The resulting suspension was sonicated with an ultrasonic cell disrupter till the solution was clarified. The homogenates were centrifuged for 5 min at 10,000 × g, and the supernatant was collected. An Aliquot was assayed and stored at ≤ −20 °C.\nThe assay sample and standard were incubated together with CYP-HRP conjugate in an appropriate number of microplates pre-coated with an antibody specific for the CYP17 enzyme for 1 h. After the incubation period, the wells were decanted and washed five times. The wells were then incubated with a substrate for the HRP enzyme. […] Colour intensity was measured spectrophotometrically at 450 nm in a microplate reader. […]\nAssay procedures: Wells for a standard, blank, and sample were prepared. […] The absorbance was measured immediately at 450 nm."}, "PC-3 cells": {"system": "PC-3 cells", "assay": "Cell cycle analysis (propidium iodide, flow cytometer)", "assay_type": "cell-based, human", "conditions": "PC-3, 2.34 µM, 24 h", "experimental": "The prostate PC-3 cells were placed in a six-well plate at 1 × 10^5 conc. of cells/well, then incubated for 24 h. The cells were treated with 2.34 µM of compound 5c or (0.1% DMSO) for 24 h. Thereafter, cells were collected and fixed for 12 h using ice-cold 70% ethanol at 4 °C. Then, ethanol was removed, and the cells were washed with cold Phosphate Buffer Saline (PBS) and incubated for 30 min at 37 °C in 0.5 ml of PBS. The cells were stained for 30 min with propidium iodide in the dark. The flow cytometer was used to detect DNA contents."}}, "note": "pIC50: −log10 of the molar value. Values joined by “and” are separate entries in the source; they are usually repeats but may differ in a detail not shown here. Equal entries are not always repeated.", "data": [{"smiles": "N#CC1C(=O)NC(c2ccccc2[N+](=O)[O-])c2sc3c(F)cccc3c21", "note": "(stereo not drawn) [Compound 5c, 4-Cyano-8-fluoro-1-(2-nitrophenyl)-1,2-dihydro[1]benzothieno[2,3-c] pyridin-3(4H)-one]", "values": [{"measurement": "GI50", "setting": "HS 578 T; Homo sapiens", "result": 18.1, "unit": "µM"}, {"measurement": "pIC50", "setting": "HS 578 T; Homo sapiens", "result": "< 4.00"}, {"measurement": "TGI", "setting": "HS 578 T", "result": 100, "unit": "µM"}, {"measurement": "pIC50", "setting": "WI-38 human cell line", "result": 4.47}, {"measurement": "CYP17 enzyme aver. conc.", "setting": "CYP17 enzyme", "result": "15.8 nM and 15.80 nM and 15.80 ± 0.20 nM"}, {"measurement": "DNA content (%) G0-G1", "setting": "PC-3 cells", "result": 49.61, "unit": "%"}, {"measurement": "DNA content (%) G2/M", "setting": "PC-3 cells", "result": 6.21, "unit": "%"}, {"measurement": "DNA content (%) Pre-G1", "setting": "PC-3 cells", "result": 42.55, "unit": "%"}, {"measurement": "DNA content (%) S", "setting": "PC-3 cells", "result": 44.18, "unit": "%"}]}]}
